Where “and” joins values, the source holds several entries; their conditions need not be identical. Equal values may be shown once. Read-outs that look alike come from different tables or passages of the source.
Tests used:
[1] = system: type L1210 intra-peritoneal lymphoma; assay: Mortality of mice carrying type L1210 intra-peritoneal lymphoma; type: in vivo; details: for Ratio % Treated/controls (T/C%): median survival times; for anti-tumour effectiveness (in words): T/C% greater than 125%
Experimental: Mice carrying a type L1210 intra-peritoneal lymphoma were treated for 7 days in parallel with the following preparations: • SYN857 (A): chlorophosphoenol pyruvate • SYN856 (B): chlorophosphoenol pyruvate and carnitine ester • BCNU: carmustine • Vehicle: control
The weight of the animals for each group as well as the individual weight curves as a function of time were plotted and the mortality of the animals was monitored.
The parameter T/C% is calculated with the ratio of the median survival time of the animals in the group considered to the median survival time of the animals in the control group, all multiplied by 100.

[2] = system: Calu-6; assay: Growth inhibition of Calu-6 cells, products alone (IC50) and in combination (CI, Chou and Talalay); type: cell-based; details: for IC50 (order of magnitude, in words): the cell lines tested (Calu-6 and NCI-H460)
Experimental: (§1) 1) Prior determination of the IC50 of the products taken in isolation on the cell lines.
(§2) Different concentration ratios were established, which were tested on the different cell lines.
(§3) For each cell line three tests were carried out.

[3] = system: Calu-6; assay: Fraction affected (Fa) and synergy index (CI) on lung cell line Calu-6, betaine citrate/metformin; type: cell-based
From the text: The cell line adopted for carrying out the experiment is the line Calu-6.
These Fa values are used in the calculation of the synergy index (CI) which makes it possible to report the presence or absence of synergy between the products.

[4] = system: NCI-H460; assay: Growth inhibition of NCI-H460 cells, products alone (IC50) and in combination (CI, Chou and Talalay); type: cell-based; details: Avandia alone
Experimental: as §1, §2, §3

[5] = product alone at 0.10 mM, three experiments
[6] = product alone at 0.20 mM, three experiments
[7] = product alone at 1.00 mM, three experiments
[8] = product alone at 2.00 mM, three experiments
[9] = product alone at 4.00 mM, three experiments

| Molecule | anti-tumour effectiveness (in words) ([1]; L1210 lymphoma mice) | IC50 (order of magnitude, in words) [2] | Fa Exp 1 ([3]; product alone at 0.05 mM) | Fa Exp 1 ([3]; product alone at 0.10 mM) | Fa Exp 3 ([3]; product alone at 0.10 mM) | Average Fa [3, 5] | Fa Exp 1 ([3]; product alone at 0.20 mM) | Fa Exp 3 ([3]; product alone at 0.20 mM) | Average Fa [3, 6] | Fa Exp 1 ([3]; product alone at 0.25 mM) | Fa Exp 2 ([3]; product alone at 0.25 mM) | Fa Exp 3 ([3]; product alone at 0.25 mM) | Fa Exp 1 ([3]; product alone at 0.50 mM) | Fa Exp 2 ([3]; product alone at 0.50 mM) | Fa Exp 3 ([3]; product alone at 0.50 mM) | Fa Exp 1 ([3]; product alone at 1.00 mM) | Fa Exp 2 ([3]; product alone at 1.00 mM) | Fa Exp 3 ([3]; product alone at 1.00 mM) | Average Fa [3, 7] | Fa Exp 1 ([3]; product alone at 2.00 mM) | further results |
| --- | --- | --- | --- | --- | --- | --- | --- | --- | --- | --- | --- | --- | --- | --- | --- | --- | --- | --- | --- | --- | --- |
| chlorophosphoenol pyruvate and carnitine ester [SYN856] | anti-tumour effectiveness | – | – | – | – | – | – | – | – | – | – | – | – | – | – | – | – | – | – | – | Average number of days of survival ± SD ([1]; 30 mg/kg/inj.): 9.00 ± 0.00 days; Median value ([1]; 30 mg/kg/inj.): 9 days; Ratio % Treated/controls (T/C%) ([1]; 30 mg/kg/inj.): >128.5%; Average number of days of survival ± SD ([1]; 60 mg/kg/inj.): 9.00 ± 0.00 days; Median value ([1]; 60 mg/kg/inj.): 9 days; Ratio % Treated/controls (T/C%) ([1]; 60 mg/kg/inj.): >128.5%; Number of dead mice ([1]; 60 mg/kg/inj., out of 10 mice, at 9 days): 6; effective concentration compared with chlorophosphoenol pyruvate alone (in words) ([1]; L1210 lymphoma mice): effective at a lower concentration than chlorophosphoenol pyruvate alone |
| betaine citrate [Betain citrate] | – | of the order of a millimol | 0.00 | 0.00 | 0.00 | 0.02 | 0.12 | 0.00 | 0.01 | 0.02 | 0.08 | 0.00 | 0.31 | 0.15 | 0.26 | 0.59 | 0.18 | 0.63 | 0.24 | 0.69 | Fa Exp 2 ([3]; product alone at 0.10 mM): 0.02; Average Fa ([3]; product alone at 0.25 mM, three experiments): 0.06; Average Fa ([3]; product alone at 0.50 mM, three experiments): 0.03; Fa Exp 2 ([3]; product alone at 2.00 mM): 0.37; Fa Exp 3 ([3]; product alone at 2.00 mM): 0.77; Average Fa [3, 8]: 0.47; Fa Exp 1 ([3]; product alone at 4.00 mM): 0.77; Fa Exp 2 ([3]; product alone at 4.00 mM): 0.61; Fa Exp 3 ([3]; product alone at 4.00 mM): 0.83; Average Fa [3, 9]: 0.61 |
| CN(CCOc1ccc(CC2SC(=O)NC2=O)cc1)c1ccccn1 (centres unmarked) [Avandia ®, rosiglitazone] | – | of the order of ten micromols | – | – | – | – | – | – | – | – | – | – | – | – | – | – | – | – | – | – | IC50 ([2]; Calu-6, Avandia alone): 14.1 µM; IC50 [4]: 8.84 µM |
| chlorophosphoenol pyruvate [SYN857] | anti-tumour effectiveness | – | – | – | – | – | – | – | – | – | – | – | – | – | – | – | – | – | – | – | Average number of days of survival ± SD ([1]; 70 mg/kg/inj.): 8.78 ± 0.42 days; Median value ([1]; 70 mg/kg/inj.): 9 days; Ratio % Treated/controls (T/C%) ([1]; 70 mg/kg/inj.): >128.5%; Number of dead mice ([1]; 70 mg/kg/inj., out of 10 mice, at 9 days): 9; Average number of days of survival ± SD ([1]; 136 mg/kg/inj.): 9.00 ± 00.0 days; Median value ([1]; 136 mg/kg/inj.): 9 days; Ratio % Treated/controls (T/C%) ([1]; 136 mg/kg/inj.): >128.5%; Number of dead mice ([1]; 136 mg/kg/inj., out of 10 mice, at 9 days): 4 |
| O=NN(CCCl)C(=O)NCCCl [BCNU ®, carmustine] | – | – | – | – | – | – | – | – | – | – | – | – | – | – | – | – | – | – | – | – | Ratio % Treated/controls (T/C%) ([1]; 15 mg/kg/inj.): >128.5%; Number of dead mice ([1]; 15 mg/kg/inj., positive control): 0; Number of dead mice ([1]; 15 mg/kg/inj., positive control, listed as BCNU): still alive |
| CN(C)C(=N)N=C(N)N [Met, metformin] | – | – | 0.03 | 0.08 | 0.04 | 0.06 | 0.04 | 0.06 | 0.05 | 0.06 | 0.06 | 0.08 | 0.08 | 0.09 | 0.13 | 0.18 | 0.19 | 0.25 | 0.21 | 0.03 | Average Fa [3]: 0.07 and 0.10; Fa Exp 2 ([3]; product alone at 0.20 mM): 0.04; Fa Exp 2 ([3]; product alone at 2.00 mM): 0.31; Fa Exp 3 ([3]; product alone at 2.00 mM): 0.36; Average Fa [3, 8]: 0.32; Fa Exp 1 ([3]; product alone at 4.00 mM): 0.36; Fa Exp 2 ([3]; product alone at 4.00 mM): 0.40; Fa Exp 3 ([3]; product alone at 4.00 mM): 0.46; Average Fa [3, 9]: 0.41 |

— patent publication US20070280918A1, “Multitherapy Against Cancer” (priority 2004, published 2007)
